Reference: patent US12173322B2, “Genome-edited induced pluripotent stem cells, and cells derived therefrom, and uses thereof” (priority 2020, dated 2024)

B1: MitTx (protein)
chain 1: QIRPAFCYEDPPFFQKCGAFVDSYYFNRSRITCVHFFYGQCDVNQNHFTTMSECNRVCHG
chain 2: NLNQFRLMIKCTNDRVWADFVDYGCYCVARDSNTPVDDLDRCCQAQKQCYDEAVKVHGCKPLVMFYSFECRYLASDLDCSGNNTKCRNFVCNCDRTATLCILTATYNRNNHKIDPSRCQ

What was measured:
[1] = tested on: Langendorff-perfused isolated mouse hearts; experiment: IRI in Langendorff-perfused isolated mouse hearts
Experimental: IRI in Langendorff-perfused mouse hearts. […] Mice (12-14 weeks) were anesthetized via an intraperitoneal injection of 10 mg/mL ketamine and 1.6 mg/mL xylazil. The heart was excised via thoracotomy and the aorta cannulated. […] Temperature was continuously measured with thermocouple needle microprobes (SDR Scientific) and maintained at 37° C. with circulating water baths. Contractile function was measured via a fluid-filled balloon inserted in the left ventricle and connected to a pressure transducer (ADInstruments Pty Ltd.). Coronary flow was measured with an in-line Doppler flow probe positioned above the aortic cannulae (Transonic Systems Inc.). All functional data were recorded on a four-channel MacLab system (ADInstruments Pty Ltd.). Following 15-30 min of equilibration, hearts were switched to ventricular pacing at 420 beats/min (BPM) using a SD9 stimulator (Grass Instruments, Inc.). Baseline measurements were made for 10-20 min followed by 25 min of global normothermic ischemia and 45 min of reperfusion. Pacing was stopped during ischemia and resumed after 15 min of reperfusion. For peptide-treated experimental groups, 1 μM peptide solution was infused with a syringe pump (World Precision Instruments, LLC.) into the buffer, directly upstream of the cannula, at a rate of 1% of CF, for a final working concentration of 10 nM. Peptide was infused for 10 min prior to the onset of ischemia and during the first 15 min of reperfusion.

[2] = tested on: hiPSC-CMs; experiment: In vitro acidosis injury of hiPSC-CMs, cell death (LDH); type: cell-based, human; conditions: for cell death: 20 nM overnight
From the text: In vitro ischemia-acidosis injury model with hiPSC-CMs. Differentiated cardiomyocytes were replated on either day 15 or day 17 of differentiation for in vitro ischemia/acidosis assays. At the time of replating, a subset of cells (˜500,000) was set aside for flow cytometry analysis of cardiomyocyte purity (see supplemental methods). For all experiments, only cell preparations with >80% sarcomeric α-actinin-positive cardiomyocytes were used. After re-plating, the cells were maintained for an additional 7 days in RPMI+B27™. To prepare media for ischemia/acidosis injury, 10×HBSS without sodium bicarbonate (Sigma) was diluted to 1× concentration in sterile tissue culture-grade water. Solutions were buffered with either 12 mM HEPES (for pH 7.4 media, Sigma Aldrich) or 12 mM MES (for pH <6.5, Sigma Aldrich) and the pH adjusted accordingly with 1 M NaOH. The medium was sterile filtered with 0.22 μm syringe filters (Millipore). […] For reperfusion experiments, the medium was replaced with HBSS pH 7.4 (with or without peptide) after overnight incubation and cultured for 1 h under normoxic conditions. […] For all cell culture experiments, percent cell death was calculated using low and high controls. For low control (LC), cardiomyocytes were cultured overnight in standard culture media (RPMI+B27™). For high control (HC), cells were cultured in RPMI+B27™ containing 1% Triton™ X-100 (Sigma-Aldrich).
To assess whether ASIC1a inhibition is cardioprotective in hiPSC-CMs, the inventors evaluated cell death in response to in vitro acidosis, induced by culturing hiPSC-CMs in Hank's […] (HBSS) with pH adjusted to pH 7.4, 6.0, or 5.0. […] To mimic ischemia/acidosis in vitro, hiPSC-CMs were incubated overnight in combined hypoxic (0.5% O2) and acidic (pH 5.0) conditions with or without peptide.

[3] = tested on: hiPSC-CMs; experiment: hiPSC-CM calcium analysis (FLIPR Tetra); type: cell-based, human; conditions: any evaluated concentration (1 nM - 1 μM)
Experimental: hiPSC-CM calcium analysis. Cardiomyocytes were replated (2×10^4 per well) in 384-well plates (CellBIND black with clear bottom, Corning) and cultured for 7 days in RPMI+B27™. On the day of the experiment, the cells were loaded for 1.5 h at 37° C. with FLIPR calcium 4 dye (Molecular Devices) diluted in HBSS pH 7.4. After loading, the plate was transferred to a FLIPR Tetra fluorescent plate reader (Molecular Devices). Calcium transients were measured with excitation wavelengths at 470-495 nm and emission at 515-575 nm. For each plate, the camera gain and intensity were adjusted to optimize signal intensity. Data for each well were expressed as normalized arbitrary fluorescence units. All data were acquired at 0.5 s per read, with baseline measurements for 45 s followed by at least 100 s of data collection after each peptide addition. Peptide solutions (in HBSS pH 7.4) were added to each well to give a final concentration of 1 nM, 10 nM, 100 nM, or 1 μM. Calcium amplitude, maximum calcium, minimum calcium, and spontaneous beating rate were analysed using ScreenWorks software (Molecular Devices) and normalized to baseline measurements.
Replated hiPSC-CMs were loaded with a fluorescent calcium dye and calcium transients were recorded before and after peptide addition.

[4] = tested on: hiPSC-CMs; experiment: In vitro ischemia/acidosis with reperfusion in hiPSC-CMs, cell death (LDH); type: cell-based, human; conditions: 10 nM; 18 h hypoxia (0.5% O2) pH 5.0, then 1 h pH 7.4 normoxia
From the text: In vitro ischemia-acidosis injury model with hiPSC-CMs. Differentiated cardiomyocytes were replated on either day 15 or day 17 of differentiation for in vitro ischemia/acidosis assays. At the time of replating, a subset of cells (˜500,000) was set aside for flow cytometry analysis of cardiomyocyte purity (see supplemental methods). For all experiments, only cell preparations with >80% sarcomeric α-actinin-positive cardiomyocytes were used. After re-plating, the cells were maintained for an additional 7 days in RPMI+B27™. To prepare media for ischemia/acidosis injury, 10×HBSS without sodium bicarbonate (Sigma) was diluted to 1× concentration in sterile tissue culture-grade water. Solutions were buffered with either 12 mM HEPES (for pH 7.4 media, Sigma Aldrich) or 12 mM MES (for pH <6.5, Sigma Aldrich) and the pH adjusted accordingly with 1 M NaOH. The medium was sterile filtered with 0.22 μm syringe filters (Millipore). […] For all cell culture experiments, percent cell death was calculated using low and high controls. […]
To assess whether ASIC1a inhibition is cardioprotective in hiPSC-CMs, the inventors evaluated cell death in response to in vitro acidosis, induced by culturing hiPSC-CMs in Hank's […] (HBSS) with pH adjusted to pH 7.4, 6.0, or 5.0. […]

[5] = biological target: T1, ASIC1a (Homo sapiens, UniProt P78348); conditions: read-out: IC50, inhibitor of ASIC1a; cited from earlier work
T1 sequence (P78348 1-528): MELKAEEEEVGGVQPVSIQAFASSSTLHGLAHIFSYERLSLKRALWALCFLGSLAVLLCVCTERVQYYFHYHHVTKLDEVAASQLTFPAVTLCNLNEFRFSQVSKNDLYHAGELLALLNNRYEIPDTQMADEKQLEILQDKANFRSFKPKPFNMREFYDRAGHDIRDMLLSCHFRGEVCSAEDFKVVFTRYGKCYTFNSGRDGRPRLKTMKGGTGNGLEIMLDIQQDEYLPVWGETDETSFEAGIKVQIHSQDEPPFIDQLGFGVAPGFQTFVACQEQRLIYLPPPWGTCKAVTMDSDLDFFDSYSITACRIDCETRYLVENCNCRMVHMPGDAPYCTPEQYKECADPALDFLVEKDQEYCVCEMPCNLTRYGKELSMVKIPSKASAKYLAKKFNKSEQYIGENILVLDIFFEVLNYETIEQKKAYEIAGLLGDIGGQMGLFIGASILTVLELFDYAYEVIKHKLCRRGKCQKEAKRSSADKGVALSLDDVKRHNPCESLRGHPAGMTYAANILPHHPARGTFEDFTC

Row | Molecule | EDP ([1]; after 45 min reperfusion, 10 nM peptide) [mmHg] | reactive hyperaemia during early reperfusion (increased CF) ([1]; first 5 min of reperfusion) | baseline contractile function ([1]; first 10 min of peptide infusion prior to ischemia, 10 nM) | cardioprotection against cell death (LDH) ([2]; overnight at pH 5.0, even at concentrations as low as 1 nM) | calcium amplitudes [3] | spontaneous beating rate [3] | cell death [4] | IC50 [5] [nM] | cell death ([2]; pH 6.0) | cell death ([2]; pH 7.4)
1 | PcTx1 | 33±8 | significant reactive hyperaemia | no effect | nearly complete cardioprotection | Neither Hi1a nor PcTx1 altered | Neither Hi1a nor PcTx1 altered | blocked | ~1 |  | 
2 | B1 |  |  |  |  |  |  |  |  | increased cell death | increased cell death
